From the supplement of paper PMC10307832

Experiments:
Assay in all cases: relative viability (nuclei count vs DMSO), 5 days (fraction); higher = more cells survive
201T = system: 201T
Outline: (§1)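 Relative viability is defined as nuclei in treated wells over nuclei in vehicle wells. Duplicate plates were run and medians reported. Lung cancer cell lines in 1536-well plates were dosed by pin tool one day after seeding, with one drug or with a fixed anchor-drug dose plus five library-drug doses (not always all listed) in √10 steps, and nuclei were counted after 5 days.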

A-427 = system: A-427
Outline: as §1

BEN = system: BEN
Outline: as §1

COR-L23 = system: COR-L23
Outline: as §1

EKVX = system: EKVX
Outline: as §1

HARA = system: HARA
Outline: as §1

HCC-15 = system: HCC-15
Outline: as §1

HCC-44 = system: HCC-44
Outline: as §1

HCC-827 = system: HCC-827
Outline: as §1

NCI-H1437 = system: NCI-H1437
Outline: as §1

NCI-H1650 = system: NCI-H1650
Outline: as §1

NCI-H1666 = system: NCI-H1666
Outline: as §1

NCI-H1792 = system: NCI-H1792
Outline: as §1

NCI-H1975 = system: NCI-H1975
Outline: as §1

NCI-H2342 = system: NCI-H2342
Outline: as §1

NCI-H23 = system: NCI-H23
Outline: as §1

NCI-H358 = system: NCI-H358
Outline: as §1

NCI-H441 = system: NCI-H441
Outline: as §1

NCI-H596 = system: NCI-H596
Outline: as §1

NCI-H650 = system: NCI-H650
Outline: as §1

NCI-H838 = system: NCI-H838
Outline: as §1

SK-MES-1 = system: SK-MES-1
Outline: as §1

SW 900 = system: SW 900
Outline: as §1

For CCN(CC)CCCCNc1ncc2cc(-c3cc(OC)cc(OC)c3)c(NC(=O)NC(C)(C)C)nc2n1 + CCNC(=O)c1noc(-c2cc(C(C)C)c(O)cc2O)c1-c1ccc(CN2CCOCC2)cc1 [Luminespib] (partner 0.01 µM), the relative viability (201T; first compound 0.01 µM) was 1.09, the relative viability (201T; first compound 0.03162 µM) was 0.955 and the relative viability (201T; first compound 0.1 µM) was 1.11. The relative viability (201T; first compound 0.3162 µM) was 1.08, the relative viability (201T; first compound 1 µM) was 0.932 and the relative viability (A-427; first compound 0.01 µM) was 1.01. For the same molecule, the relative viability (A-427; first compound 0.03162 µM) was 1.01, the relative viability (A-427; first compound 0.1 µM) was 1.09 and the relative viability (A-427; first compound 0.3162 µM) was 1.03. It also gave a relative viability (A-427; first compound 1 µM) of 0.872, a relative viability (BEN; first compound 0.01 µM) of 0.249 and a relative viability (BEN; first compound 0.03162 µM) of 0.243. It also gave a relative viability (BEN; first compound 0.1 µM) of 0.545, a relative viability (BEN; first compound 0.3162 µM) of 0.496 and a relative viability (BEN; first compound 1 µM) of 0.297. The relative viability (COR-L23; first compound 0.01 µM) was 0.799, the relative viability (COR-L23; first compound 0.03162 µM) was 0.707 and the relative viability (COR-L23; first compound 0.1 µM) was 0.955. It also gave a relative viability (COR-L23; first compound 0.3162 µM) of 1.03, a relative viability (COR-L23; first compound 1 µM) of 0.639 and a relative viability (EKVX; first compound 0.01 µM) of 0.842. The relative viability (EKVX; first compound 0.03162 µM) was 0.909, the relative viability (EKVX; first compound 0.1 µM) was 0.934 and the relative viability (EKVX; first compound 0.3162 µM) was 0.971. For the same molecule, the relative viability (EKVX; first compound 1 µM) was 0.83, the relative viability (HARA; first compound 0.01 µM) was 1.11 and the relative viability (HARA; first compound 0.03162 µM) was 0.896. It also gave a relative viability (HARA; first compound 0.1 µM) of 0.948, a relative viability (HARA; first compound 0.3162 µM) of 0.904 and a relative viability (HARA; first compound 1 µM) of 0.439. It also gave a relative viability (HCC-15; first compound 0.01 µM) of 0.251, a relative viability (HCC-15; first compound 0.03162 µM) of 0.257 and a relative viability (HCC-15; first compound 0.1 µM) of 0.348. The relative viability (HCC-15; first compound 0.3162 µM) was 0.422, the relative viability (HCC-15; first compound 1 µM) was 0.266 and the relative viability (HCC-44; first compound 0.01 µM) was 1.07. It also gave a relative viability (HCC-44; first compound 0.03162 µM) of 1.06, a relative viability (HCC-44; first compound 0.1 µM) of 0.801 and a relative viability (HCC-44; first compound 0.3162 µM) of 1.06. The relative viability (HCC-44; first compound 1 µM) was 0.866, the relative viability (HCC-827; first compound 0.01 µM) was 0.675 and the relative viability (HCC-827; first compound 0.03162 µM) was 0.891. For the same molecule, the relative viability (HCC-827; first compound 0.1 µM) was 0.77, the relative viability (HCC-827; first compound 0.3162 µM) was 0.774 and the relative viability (HCC-827; first compound 1 µM) was 0.587. For the same molecule, the relative viability (NCI-H1437; first compound 0.01 µM) was 1.18, the relative viability (NCI-H1437; first compound 0.03162 µM) was 1.1 and the relative viability (NCI-H1437; first compound 0.1 µM) was 1.26. It also gave a relative viability (NCI-H1437; first compound 0.3162 µM) of 1.1, a relative viability (NCI-H1437; first compound 1 µM) of 1.05 and a relative viability (NCI-H1650; first compound 0.01 µM) of 0.227. It also gave a relative viability (NCI-H1650; first compound 0.03162 µM) of 0.214, a relative viability (NCI-H1650; first compound 0.1 µM) of 0.204 and a relative viability (NCI-H1650; first compound 0.3162 µM) of 0.206. For the same molecule, the relative viability (NCI-H1650; first compound 1 µM) was 0.203, the relative viability (NCI-H1666; first compound 0.01 µM) was 0.944 and the relative viability (NCI-H1666; first compound 0.03162 µM) was 0.971. For the same molecule, the relative viability (NCI-H1666; first compound 0.1 µM) was 1.04, the relative viability (NCI-H1666; first compound 0.3162 µM) was 1.02 and the relative viability (NCI-H1666; first compound 1 µM) was 0.794. It also gave a relative viability (NCI-H1792; first compound 0.01 µM) of 0.38, a relative viability (NCI-H1792; first compound 0.03162 µM) of 0.388 and a relative viability (NCI-H1792; first compound 0.1 µM) of 0.536. It also gave a relative viability (NCI-H1792; first compound 0.3162 µM) of 0.37, a relative viability (NCI-H1792; first compound 1 µM) of 0.282 and a relative viability (NCI-H1975; first compound 0.01 µM) of 0.161. It also gave a relative viability (NCI-H1975; first compound 0.03162 µM) of 0.148, a relative viability (NCI-H1975; first compound 0.1 µM) of 0.201 and a relative viability (NCI-H1975; first compound 0.3162 µM) of 0.366. For the same molecule, the relative viability (NCI-H1975; first compound 1 µM) was 0.199, the relative viability (NCI-H2342; first compound 0.01 µM) was 0.775 and the relative viability (NCI-H2342; first compound 0.03162 µM) was 0.833. It also gave a relative viability (NCI-H2342; first compound 0.1 µM) of 0.768, a relative viability (NCI-H2342; first compound 0.3162 µM) of 0.633 and a relative viability (NCI-H2342; first compound 1 µM) of 0.811. The relative viability (NCI-H23; first compound 0.01 µM) was 0.214, the relative viability (NCI-H23; first compound 0.03162 µM) was 0.203 and the relative viability (NCI-H23; first compound 0.1 µM) was 0.241. The relative viability (NCI-H23; first compound 0.3162 µM) was 0.202, the relative viability (NCI-H23; first compound 1 µM) was 0.205 and the relative viability (NCI-H358; first compound 0.01 µM) was 0.429. It also gave a relative viability (NCI-H358; first compound 0.03162 µM) of 0.193, a relative viability (NCI-H358; first compound 0.1 µM) of 0.348 and a relative viability (NCI-H358; first compound 0.3162 µM) of 0.503. It also gave a relative viability (NCI-H358; first compound 1 µM) of 0.347, a relative viability (NCI-H441; first compound 0.01 µM) of 0.313 and a relative viability (NCI-H441; first compound 0.03162 µM) of 0.422. The relative viability (NCI-H441; first compound 0.1 µM) was 0.344, the relative viability (NCI-H441; first compound 0.3162 µM) was 0.353 and the relative viability (NCI-H441; first compound 1 µM) was 0.362. For the same molecule, the relative viability (NCI-H596; first compound 0.01 µM) was 1.03, the relative viability (NCI-H596; first compound 0.03162 µM) was 1.05 and the relative viability (NCI-H596; first compound 0.1 µM) was 1.02. For the same molecule, the relative viability (NCI-H596; first compound 0.3162 µM) was 1.01, the relative viability (NCI-H596; first compound 1 µM) was 0.621 and the relative viability (NCI-H650; first compound 0.01 µM) was 0.74. For the same molecule, the relative viability (NCI-H650; first compound 0.03162 µM) was 0.729, the relative viability (NCI-H650; first compound 0.1 µM) was 0.736 and the relative viability (NCI-H650; first compound 0.3162 µM) was 0.864. For the same molecule, the relative viability (NCI-H650; first compound 1 µM) was 0.848, the relative viability (NCI-H838; first compound 0.01 µM) was 0.344 and the relative viability (NCI-H838; first compound 0.03162 µM) was 0.244. The relative viability (NCI-H838; first compound 0.1 µM) was 0.304, the relative viability (NCI-H838; first compound 0.3162 µM) was 0.304 and the relative viability (NCI-H838; first compound 1 µM) was 0.3. For the same molecule, the relative viability (SK-MES-1; first compound 0.01 µM) was 0.97, the relative viability (SK-MES-1; first compound 0.03162 µM) was 0.762 and the relative viability (SK-MES-1; first compound 0.1 µM) was 0.832. For the same molecule, the relative viability (SK-MES-1; first compound 0.3162 µM) was 0.798, the relative viability (SK-MES-1; first compound 1 µM) was 0.576 and the relative viability (SW 900; first compound 0.01 µM) was 0.172. It also gave a relative viability (SW 900; first compound 0.03162 µM) of 0.182, a relative viability (SW 900; first compound 0.3162 µM) of 0.15 and a relative viability (SW 900; first compound 1 µM) of 0.188.
